“And” between values parts separate entries of the source, which are not always exact repeats. Equal values may be shown once. Toxic doses and inconclusive results are not listed.
Test system: B6C3F1 mice, Lewis lung carcinoma iv, survival T/C
Assay: NCI In Vivo Anticancer Drug Screen. Data for tumor model Lewis Lung Carcinoma (intravenous) in B6C3F1 mice
Conditions: endpoint: median survival time, higher = longer survival
Procedure: The antitumor activity of compounds was measured in mice bearing transplantable tumors. Survival or tumor size were measured and the results are expressed as the measurement made in the treated group (T) divided by the measurement made in the vehicle treated control group (C). The tumor model used in this assay is Lewis Lung Carcinoma (intravenous) in B6C3F1 mice

[1] = dose: 25.0 mg/kg/injection, schedule: Q01DX009 (ip), vehicle: Klucel (hydroxypropylcellulose) (HPC)
[2] = dose: 50.0 mg/kg/injection, schedule: Q01DX009 (ip), vehicle: Klucel (hydroxypropylcellulose) (HPC)
[3] = dose: 6.25 mg/kg/injection, schedule: Q01DX009 (ip), vehicle: saline
[4] = dose: 12.5 mg/kg/injection, schedule: Q01DX009 (ip), vehicle: saline
[5] = dose: 25.0 mg/kg/injection, schedule: Q01DX009 (ip), vehicle: saline
[6] = dose: 50.0 mg/kg/injection, schedule: Q01DX009 (ip), vehicle: saline
[7] = dose: 3.12 mg/kg/injection, schedule: Q01DX009 (ip), vehicle: saline
[8] = dose: 6.25 mg/kg/injection, schedule: Q01DX009 (ip), vehicle: saline with Tween-80
[9] = dose: 12.5 mg/kg/injection, schedule: Q01DX009 (ip), vehicle: saline with Tween-80
[10] = dose: 50.0 mg/kg/injection, schedule: Q01DX009 (ip), vehicle: saline with Tween-80
[11] = dose: 100.0 mg/kg/injection, schedule: Q01DX009 (ip), vehicle: saline with Tween-80
[12] = dose: 100.0 mg/kg/injection, schedule: Q01DX009 (ip), vehicle: saline
[13] = dose: 200.0 mg/kg/injection, schedule: Q01DX009 (ip), vehicle: saline

Cc1[nH]ccc(=O)c1O
T/C (dose: 16.0 mg/kg/injection, schedule: Q01DX009 (ip), vehicle: saline with Tween-80): 87 % of control
T/C (dose: 32.0 mg/kg/injection, schedule: Q01DX009 (ip), vehicle: saline with Tween-80): 95 % of control
T/C (dose: 64.0 mg/kg/injection, schedule: Q01DX009 (ip), vehicle: saline with Tween-80): 101 % of control
T/C (dose: 128.0 mg/kg/injection, schedule: Q01DX009 (ip), vehicle: saline with Tween-80): 108 % of control
T/C (dose: 256.0 mg/kg/injection, schedule: Q01DX009 (ip), vehicle: saline with Tween-80): 99 % of control

C=C(C)[C@H]1CN[C@H](C(=O)O)[C@H]1CC(=O)O
T/C (dose: 0.31 mg/kg/injection, schedule: Q01DX009 (ip), vehicle: saline): 113 % of control
T/C (dose: 0.62 mg/kg/injection, schedule: Q01DX009 (ip), vehicle: saline): 103 % of control
T/C (dose: 1.25 mg/kg/injection, schedule: Q01DX009 (ip), vehicle: saline): 112 % of control
T/C (dose: 2.5 mg/kg/injection, schedule: Q01DX009 (ip), vehicle: saline): 100 % of control
T/C (dose: 5.0 mg/kg/injection, schedule: Q01DX009 (ip), vehicle: saline): 112 % of control
T/C (dose: 10.0 mg/kg/injection, schedule: Q01DX009 (ip), vehicle: saline): 107 % of control

Cc1cc(NC(=S)SCc2ccc3c(c2)OCO3)ccc1Cl
T/C [1]: 114 % of control
T/C [2]: 114 % of control
T/C (dose: 100.0 mg/kg/injection, schedule: Q01DX009 (ip), vehicle: Klucel (hydroxypropylcellulose) (HPC)): 115 % of control

O=P1(N(CCCl)CCCl)NCCCO1 (stereo not drawn)
T/C (dose: 6.0 mg/kg/injection, schedule: Q01DX009 (ip), vehicle: saline): 105 % of control
T/C [3]: 108 % of control
T/C (dose: 12.0 mg/kg/injection, schedule: Q01DX009 (ip), vehicle: saline): 116 % of control
T/C [4]: 123 % of control
T/C (dose: 25.0 mg/kg/injection, schedule: Q01DX001 (ip), vehicle: saline): 110 % of control
T/C [5]: 191 % of control
T/C (dose: 37.0 mg/kg/injection, schedule: Q01DX001 (ip), vehicle: saline): 120 % of control
T/C (dose: 48.4 mg/kg/injection, schedule: Q01DX001 (ip), vehicle: saline): 103 % of control
T/C (dose: 50.0 mg/kg/injection, schedule: Q01DX001 (ip), vehicle: saline): 116 % of control and 122 % of control
T/C [6]: 337 % of control
T/C (dose: 64.4 mg/kg/injection, schedule: Q01DX001 (ip), vehicle: saline): 115 % of control
T/C (dose: 75.0 mg/kg/injection, schedule: Q01DX001 (ip), vehicle: saline): 171 % of control
T/C (dose: 100.0 mg/kg/injection, schedule: Q01DX001 (ip), vehicle: saline): 151 % of control and 152 % of control and 188 % of control
T/C (dose: 150.0 mg/kg/injection, schedule: Q01DX001 (ip), vehicle: saline): 349 % of control
T/C (dose: 300.0 mg/kg/injection, schedule: Q01DX001 (ip), vehicle: saline): 230 % of control
T/C (dose: 400.0 mg/kg/injection, schedule: Q01DX001 (ip), vehicle: saline): 312 % of control

Brc1c(NC2=NCCN2)ccc2nccnc12
T/C (dose: 1.56 mg/kg/injection, schedule: Q01DX009 (ip), vehicle: saline): 103 % of control
T/C [7]: 114 % of control
T/C [3]: 100 % of control
T/C [4]: 101 % of control
T/C [5]: 101 % of control
T/C [6]: 112 % of control

O=[N+]([O-])c1ccc(N2CCOCC2)c2c1no[n+]2[O-]
T/C [8]: 118 % of control
T/C [9]: 102 % of control
T/C (dose: 25.0 mg/kg/injection, schedule: Q01DX009 (ip), vehicle: saline with Tween-80): 111 % of control
T/C [10]: 111 % of control
T/C [11]: 98 % of control

O=C1c2ccccc2C(=O)c2c3c(cc(NCCNCCO)c21)N(CCO)CCN3
T/C (dose: 12.5 mg/kg/injection, schedule: Q01DX009 (ip), vehicle: DMSO): 101 % of control
T/C (dose: 25.0 mg/kg/injection, schedule: Q01DX009 (ip), vehicle: DMSO): 95 % of control
T/C (dose: 50.0 mg/kg/injection, schedule: Q01DX009 (ip), vehicle: DMSO): 104 % of control
T/C (dose: 100.0 mg/kg/injection, schedule: Q01DX009 (ip), vehicle: DMSO): 101 % of control
T/C (dose: 200.0 mg/kg/injection, schedule: Q01DX009 (ip), vehicle: DMSO): 96 % of control

NC(=O)c1c[se]c(C2OC(CO)C(O)C2O)n1 (stereo not drawn)
T/C (dose: 0.75 mg/kg/injection, schedule: Q01DX009 (ip), vehicle: water): 107 % of control
T/C (dose: 1.5 mg/kg/injection, schedule: Q01DX009 (ip), vehicle: water): 110 % of control
T/C (dose: 3.0 mg/kg/injection, schedule: Q01DX009 (ip), vehicle: water): 152 % of control and 153 % of control
T/C (dose: 6.0 mg/kg/injection, schedule: Q01DX009 (ip), vehicle: water): 297 % of control
T/C (dose: 12.0 mg/kg/injection, schedule: Q01DX009 (ip), vehicle: water): 297 % of control and 355 % of control
T/C (dose: 13.0 mg/kg/injection, schedule: Q01DX009 (ip), vehicle: water): 315 % of control
T/C (dose: 24.0 mg/kg/injection, schedule: Q01DX009 (ip), vehicle: water): 297 % of control
T/C (dose: 25.0 mg/kg/injection, schedule: Q01DX009 (ip), vehicle: water): 355 % of control
T/C (dose: 33.0 mg/kg/injection, schedule: Q01DX009 (ip), vehicle: water): 94 % of control
T/C (dose: 75.0 mg/kg/injection, schedule: Q01DX009 (ip), vehicle: water): 315 % of control
T/C (dose: 100.0 mg/kg/injection, schedule: Q01DX009 (ip), vehicle: water): 120 % of control

CN(C)[C@@H]1C(=O)C(C(N)=O)=C(O)[C@@]2(O)C(=O)C3=C(O)c4c(O)ccc(Cl)c4[C@@](C)(O)[C@H]3C[C@@H]12
T/C [4]: 100 % of control
T/C [5]: 100 % of control
T/C [6]: 109 % of control
T/C [12]: 113 % of control
T/C [13]: 101 % of control

CC1(C)CC23C4COC(=O)C2CCC1C3CC4=O (stereo not drawn)
T/C (dose: 3.0 mg/kg/injection, schedule: Q01DX009 (ip), vehicle: DMSO): 103 % of control
T/C (dose: 6.0 mg/kg/injection, schedule: Q01DX009 (ip), vehicle: DMSO): 97 % of control and 99 % of control
T/C (dose: 12.0 mg/kg/injection, schedule: Q01DX009 (ip), vehicle: DMSO): 100 % of control and 102 % of control
T/C (dose: 24.0 mg/kg/injection, schedule: Q01DX009 (ip), vehicle: DMSO): 95 % of control and 124 % of control
T/C (dose: 48.0 mg/kg/injection, schedule: Q01DX009 (ip), vehicle: DMSO): 103 % of control and 106 % of control
T/C (dose: 96.0 mg/kg/injection, schedule: Q01DX009 (ip), vehicle: DMSO): 102 % of control
T/C (dose: 192.0 mg/kg/injection, schedule: Q01DX009 (ip), vehicle: DMSO): 98 % of control

c1ccc2c(c1)-c1ccccc1C1NC21 (stereo not drawn)
T/C [8]: 100 % of control
T/C [9]: 106 % of control

O=c1[nH]c2c(ccc3cnccc32)c2c1CCC2
T/C [7]: 109 % of control
T/C [3]: 102 % of control
T/C [4]: 105 % of control
T/C [5]: 109 % of control

Cn1/c2cc/c1=C(\c1ccc(S(=O)(=O)O)cc1)c1ccc([n-]1)/C(c1ccc(S(=O)(=O)O)cc1)=c1/cc/c([nH]1)=C(\c1ccc(S(=O)(=O)O)cc1)c1ccc([n-]1)/C=2c1ccc(S(=O)(=O)O)cc1.O.O=S(=O)(O)C(F)(F)F.[Cu+2]
T/C [3]: 109 % of control
T/C [4]: 112 % of control
T/C [5]: 116 % of control
T/C [6]: 112 % of control

Nc1n[nH]c(N)n1
T/C [12]: 109 % of control
T/C [13]: 109 % of control
T/C (dose: 400.0 mg/kg/injection, schedule: Q01DX009 (ip), vehicle: saline): 106 % of control
T/C (dose: 800.0 mg/kg/injection, schedule: Q01DX009 (ip), vehicle: saline): 115 % of control

CC1=NNC(=O)C1CCO (stereo not drawn)
T/C (dose: 6.25 mg/kg/injection, schedule: Q01DX009 (ip), vehicle: Klucel (hydroxypropylcellulose) (HPC)): 104 % of control
T/C (dose: 12.5 mg/kg/injection, schedule: Q01DX009 (ip), vehicle: Klucel (hydroxypropylcellulose) (HPC)): 96 % of control
T/C [1]: 108 % of control
T/C [2]: 92 % of control and 99 % of control
T/C (dose: 200.0 mg/kg/injection, schedule: Q01DX009 (ip), vehicle: Klucel (hydroxypropylcellulose) (HPC)): 98 % of control and 108 % of control
T/C (dose: 400.0 mg/kg/injection, schedule: Q01DX009 (ip), vehicle: Klucel (hydroxypropylcellulose) (HPC)): 112 % of control

CCCCCC#CC1OC12CCCCC2 (stereo not drawn)
T/C [10]: 102 % of control
T/C [11]: 100 % of control
T/C (dose: 200.0 mg/kg/injection, schedule: Q01DX009 (ip), vehicle: saline with Tween-80): 88 % of control
T/C (dose: 400.0 mg/kg/injection, schedule: Q01DX009 (ip), vehicle: saline with Tween-80): 91 % of control

— PubChem BioAssay AID276 (DTP/NCI, 2004)
